Values after ≈ are worked out from the molar mass of the structure shown. “Also recorded” adds a separate entry of the source. Read-outs that look alike come from different tables or passages of the source.
How the values were obtained:
C57/BL6 WT mice = assay: Contextual fear conditioning paradigm, memory formation in wild type mice; assay type: in vivo; conditions: for memory formation, tested 24 hours after training: 1 mg/kg for 10 days, WT mice, n=20 (FIG. 45B); for memory as measured by % freezing, contextual fear conditioning: HDAC inhibitor injected for 10 days, WT mice (FIG. 26)
Protocol: C57/BL6 WT mice were injected with vehicle or HDAC inhibitor for 10 days.
The total number of mice in each group is indicated in the bottom of each column of FIG. 45A. Mice were subsequently trained with contextual fear conditioning paradigm and tested 24 hours after training. […] After 10 day's dosing, mice were trained with contextual fear conditioning paradigm and tested 24 hours after training.

[1] = Solubility study of CI-994 HCl salt in saline; assay type: physicochemical
Protocol: 2. […] Shaken the tube manually. Observation: Solution becomes hazy. 4. Sonicated the above solution of step 3 for 5 minutes. Observation: Solution becomes white colored cloudy solution when 0.9% saline solution was added. […] 5. […] 6. Supernatant clear solution of step 5 was used for analysis.

CK-p25 mice [2] = assay: Local field potential recording in hippocampus CA1 of CK-p25 mice; assay type: in vivo; conditions: 1 mg/kg i.p. 10 days, recorded 10 days after treatment
mice [3] = assay: Fear extinction under the reconsolidation paradigm; assay type: in vivo; conditions: for spontaneous recovery of fear memory, freezing one month after initial training: reconsolidation paradigm; for fear extinction, freezing time of first trial in each day: reconsolidation training 4 days, n=20
Protocol: Mice were trained in contextual fear conditioning paradigm with two shocks. The mice subsequently received the reconsolidation training during the following 4 days. […] One hour after injection, mice were placed back to the same context for 3 minutes. The freezing time of the first trial in each day was measured and plotted.
Spontaneous recovery of the fear memory were tested one month after the initial fear memory training. […] (students t-Test).

HEK293 cells = assay: Histone acetylation marks in HEK293 cells, Western blot; assay type: cell-based; conditions: whole HEK293 cells, 10 uM, 6 hour
Wild type C57/BL6 mice = assay: Fear extinction under normal extinction paradigm; assay type: in vivo; conditions: DCS 15 mg/kg or CI-994 30 mg/kg, 21 minute extinction trial
Excerpt: Wild type C57/BL6 mice were trained with contextual fear conditioning paradigms.

mice [4] = assay: Extinction of traumatic long-term memories; assay type: in vivo
Excerpt: 30 days after training, mice were exposed to two 3-min extinction sessions per day in the same context as they were trained. […] 30 days after fear conditioning to both the context (context A) and the cue (3×0.8 mA shock for 2 sec paired with a tone) mice were first exposed to the cue alone in a different context (context B) than the one in which training occurred (context A), and subsequently to two 3-min extinction sessions per day in the same context as they were trained (context A). After the end of this extinction session, mice were again exposed to context B, and their memory tested.

mice [5] = assay: Three-day fear memory extinction trials with reminder shock; assay type: in vivo; conditions: 25 mg/kg
Protocol: Two groups of mice were trained in contextual fear conditioning for two times before a three-day-extinction trials. In each extinction day, mice were exposed to the training box without any shock for 3 minutes and returned back to their home-cage. […] The freezing behavior of each mouse in the training cage were monitored. To test the fear memory recovery, a reminder shock was given one hour after the last extinction trial.

WT C57/BL6 mice = assay: Single dose before one 21 minute fear extinction trial; assay type: in vivo
Protocol: The mice were exposed to the fear-associated context for 21 minutes without pairing with shock. Freezing behavior was measured in the first 3 minutes and last 3 minutes during the extinction training, 24 hrs after extinction and 30 days after extinction. (n=20 for each group).

[6] = oral dose level of less than 15 mg/m2 once a day, humans; cited from earlier work
CK-p25 mice [7] = assay: Morris watermaze in CK-p25 mice; conditions: 1 mg/kg i.p. for 10 days
Protocol: All 3 groups of mice were trained with the standard Morris watermaze paradigm for 6 days. Mice were placed in the swimming pool for 60 seconds to search for the hidden platform in each trial. A total of 3 trials were performed in each day with 5 min inter-trial-intervals. The average time each group of mice spent to find the platform is plotted (escape latency).
The two groups of mice were trained in the Morris watermaze paradigm for 7 days as described above. On day 8, platform was removed and mice were tested for memory retrieval. The average time each group of mice spent in the target quadrant is plotted.

[8] = Maximal solubility of CI-994 free base in solvents, HPLC; assay type: physicochemical
HDAC isoforms = assay: Enzymatic inhibitory activity against known HDAC isoforms; assay type: biochemical, human; conditions: for time dependent enzymatic inhibitory activity against HDAC isoforms: 1-3 h preincubation
Excerpt: Comparison was also made to other known memory enhancers and their ability to inhibit the same HDAC enzymes.

mice [9] = assay: Extinction of fear memory under specific context; assay type: in vivo; conditions: 30 mg/kg one hour after retrieval, 3 days, n=10
Protocol: Mice were placed in a novel training box for 3 minutes and received tone for 30 seconds, followed by electrical shocks. […] Twenty-four hours after the second fear conditioning training, mice were exposed to the training chamber (context only) to retrieve the context dependant memory. […] One hour after injection, mice were placed back in the chamber for 3 min for the extinction training. The reactivation-extinction trials were performed once in each day for 3 days and freezing level was measured 5 days after the last training. (n=10 for each group).

[10] = system: TCF/LEF luciferase reporter gene; assay: TCF/LEF luciferase reporter gene in human neural progenitor cells; assay type: cell-based; conditions: read-out: EC50 of TCF/LEF luciferase reporter activation
[11] = system: HDAC2 overexpression mice
Protocol: Mice were trained using contextual fear conditioning paradigm on day 0.
For the memory reconsolidation paradigm, after the fear extinction training as described above, mice were housed in the home cage for one month. Mice were subsequently re-exposed to the conditioning box for 3 min, their freezing behavior measured.

[12] = target concentration 5 mg/ml, 0.9% NaCl

With `COc1cc2c(cc1OC)C(=O)C(CC1CCN(Cc3ccccc3)CC1)C2` (stereo not drawn) [Aricept, reference compound] the “memory formation, tested 24 hours after training” value (C57/BL6 WT mice) was “did not show any effects in memory formation”.
In the case of `CC(=O)Nc1ccc(C(=O)Nc2ccccc2N)cc1.Cl` [BROAD-SAI-140], the “improvement in solubility in aqueous solution versus CI-994” value [1] is reported as 35 ×, the “chemical and solution stability, HPLC” value ([1]; saline solution) is reported as ≥ 2 h and the “Amount of drug dissolved in mg/ml of saline, 2 hours” value [1, 12] is reported as 2.841 mg/mL. For the same compound, the “Amount of drug dissolved in mg/ml of saline, Initial” value [1, 12] was 2.852 mg/mL.
For `CC(=O)Nc1ccc(C(=O)Nc2ccccc2N)cc1` [CI-994, 4-(acetylamino)-N-(2-aminophenyl)benzamide], the “LFP oscillation power in area CA1 (theta and gamma band)” value (CK-p25 mice [2]) was “significantly increased the oscillation power”, the “spontaneous recovery of fear memory, freezing one month after initial training” value (mice [3]) was “significantly lower freezing level than the vehicle group” and the “fear extinction, freezing time of first trial in each day” value (mice [3]) was “significantly facilitated fear extinction”. For the same compound, the “acetylation levels over DMSO controls (anti-acetyl H4K12)” value (HEK293 cells) was “increased acetylation levels over DMSO controls”, the “freezing 24 hours after the extinction training” value (Wild type C57/BL6 mice) was “showed significant reduction in freezing” and the “memories formed in a different context (context B)” value (mice [4]; 5 mg/kg (FIG. 49E)) was “did not affect memories formed in a context different from the extinction context”. For the same compound, the “freezing level during extinction sessions 30 days after training” value (mice [4]; 5 mg/kg, p<0.001 (FIG. 49B)) was “significantly reduced the animals' freezing level”, the “freezing levels 30 days after the last extinction trial” value (mice [4]; 5 mg/kg, p<0.001 (FIG. 49C)) was “still show reduced freezing levels compared to vehicle-treated ones” and the “freezing level in the extinction context (context A)” value (mice [4]; 5 mg/kg, p<0.05 (FIG. 49F)) was “exclusively reduced the animals' freezing level in the context in which the extinction had occurred”. For the same compound, the “freezing levels 30 days after last extinction trials, extinguished context” value (mice [4]; 5 mg/kg, p<0.05 (FIG. 49G)) was “still show reduced freezing levels compared to vehicle-treated ones”, the “decay of freezing time before and after injection, extinction day 1” value (mice [5]) was “faster decay of freezing time” and the “decay of freezing time before and after injection, extinction day 2” value (mice [5]) was “faster decay of freezing time”. The “extinction of fear memory, freezing during first 3-min-exposure in each day” value (mice [5]; N=8) was “much faster”, the “freezing time on the third day” value (mice [5]; p<0.05) was “significantly less freezing time than the control group” and the “freezing level 24 hours after the reminder shock” value (mice [5]; versus control group) was “No significant difference”. For the same compound, the “spontaneous recovery of fear memory 30 days after extinction training” value (WT C57/BL6 mice; one dose i.p. 30 mg/kg) was “not evident”, the “freezing behavior after single extinction exposure” value (WT C57/BL6 mice; one dose i.p. 30 mg/kg one hour before 21 minute extinction trial, n=20) was “effective reduction in freezing” and the “memory formation, tested 24 hours after training” value (C57/BL6 WT mice) was “significantly increased memory formation”. For the same compound, the “memory as measured by % time freezing” value (C57/BL6 WT mice; 1 mg/kg, every day and alternate day dosing schedule) was “equally effective”, the “memory as measured by % time freezing” value (C57/BL6 WT mice; 30 mg/kg every day for 10 days) was “improves the memory of mice” and the “memory as measured by % time freezing” value (C57/BL6 WT mice; 30 mg/kg, alternate day dosing schedule) was “equally effective”. For the same compound, the “memory as measured by % time freezing, dose response” value (C57/BL6 WT mice; 10, 5, and 1 mg/kg every day for 10 days) was “efficacious as a memory enhancer at all doses”, the “serum AUC, average (variance as percentage of the mean)” value [6] was 9500(62.7%) ng·hr/mL and the “serum Cmax, average (variance as percentage of the mean)” value [6] was 570(25.1%) ng/mL. The “time spent in the target quadrant, memory retrieval on day 8” value (CK-p25 mice [7]) was “rescued the memory retrieval deficits”, the “escape latency (time to find hidden platform)” value (CK-p25 mice [7]; 6 days training) was “showed similar learning curve as control mice” and the “Conc. in Vehicles, DMA” value ([8]; maximal solubility, free base) was 246040 µg/mL. For the same compound, the “Conc. in Vehicles, DMSO” value ([8]; maximal solubility, free base) was 266150 µg/mL, the “Conc. in Vehicles, EtOH” value ([8]; maximal solubility, free base) was 2120 µg/mL and the “Conc. in Vehicles, NMP” value ([8]; maximal solubility, free base) was 243280 µg/mL. For the same compound, the “Conc. in Vehicles, Saline” value ([8]; maximal solubility, free base, 0.9% NaCl, at least 2 h) was 80 µg/mL, the solubility at 2 h ([8]; saline (0.9% NaCl), saline or isotonic, read-out: Conc. in Vehicles, Saline) was 80 µg/mL (≈ 297 µM) and the “enzymatic inhibitory activity against HDAC isoforms (inhibition profile)” value (HDAC isoforms) was “primarily Class I HDAC inhibitors”. The “time dependent enzymatic inhibitory activity against HDAC isoforms” value (HDAC isoforms) was “primarily Class I HDAC inhibitors”, the “enzymatic inhibitory activity against HDAC isoforms (inhibition profile)” value (HDAC isoforms; listed as CI994) was “inhibits HDAC1, 2 and 3” and the “freezing level 5 days after the last training” value (mice [9]) was “enhanced extinction of fear memory under specific context”. The EC50 [10] was ~7 µM, the “freezing level after 5 extinction trials” value ([11]; HDAC2 overexpressing mice, 30 mg/kg i.p., 2 doses) was 30% and the “freezing levels after one month of spontaneous recovery” value ([11]; HDAC2 overexpression mice) was “significantly reduced the freezing levels”. For the same compound, the “fear memory extinction in WT mice” value ([11]; WT mice, 30 mg/kg i.p.) was “extinct significantly faster than the vehicle treated group”.
With `N[C@@H]1CONC1=O` [DCS, D-cycloserine, reference compound] the “spontaneous recovery of fear memory, freezing one month after initial training” value (mice [3]) was “no significant difference comparing to the vehicle group”, the “fear extinction, freezing time of first trial in each day” value (mice [3]) was “but not DCS, significantly facilitated fear extinction” and the “freezing 24 hours after the extinction training” value (Wild type C57/BL6 mice) was “showed significant reduction in freezing”.
In the case of `Nc1ccccc1NC(=O)c1ccc(CNc2nccc(-c3cccnc3)n2)cc1` [MGCD0103, reference compound], the “memory as measured by % freezing, contextual fear conditioning” value (shortened to “memory as measured by % freezing”) (C57/BL6 WT mice) is reported as “not efficacious” and the “memory as measured by % freezing” value (C57/BL6 WT mice; listed as MGC-D0103) is reported as “did not result in improved cognition”.
With `Nc1ccccc1NC(=O)c1ccc(CNC(=O)OCc2cccnc2)cc1` [MS-275, reference compound] the “memory as measured by % freezing” value (C57/BL6 WT mice) was “not efficacious; also recorded: did not result in improved cognition”.
With `O=C(CCCCCCC(=O)Nc1ccccc1)NO` [SAHA, reference compound] the “acetylation levels over DMSO controls (anti-acetyl H4K12)” value (HEK293 cells) was “increased acetylation levels over DMSO controls”.
In the case of `Nc1ccc(C(=O)Nc2ccccc2N)cc1` [dinaline], the “enzymatic inhibitory activity against HDAC isoforms (inhibition profile)” value (HDAC isoforms) is reported as “primarily Class I HDAC inhibitors” and the “time dependent enzymatic inhibitory activity against HDAC isoforms” value (HDAC isoforms) is reported as “primarily Class I HDAC inhibitors”.
